Among the data in patent US8273752B2, “Substituted imidazopyrimidines and triazolopyrimidines” (Bayer Intellectual Property GmbH, priority 2007, dated 2012) are IC50 values, retold here.

As a reminder, the IC50 is the concentration at which inhibition is half-maximal. A low value points to inhibition by little substance.

Structures can show the parent of a compound that is named as a salt.

In this test the target is T1, GSK3β (Homo sapiens, UniProt P49841).
T1 construct: purchased Upstate xy
T1 sequence (P49841 whole entry, species assumed): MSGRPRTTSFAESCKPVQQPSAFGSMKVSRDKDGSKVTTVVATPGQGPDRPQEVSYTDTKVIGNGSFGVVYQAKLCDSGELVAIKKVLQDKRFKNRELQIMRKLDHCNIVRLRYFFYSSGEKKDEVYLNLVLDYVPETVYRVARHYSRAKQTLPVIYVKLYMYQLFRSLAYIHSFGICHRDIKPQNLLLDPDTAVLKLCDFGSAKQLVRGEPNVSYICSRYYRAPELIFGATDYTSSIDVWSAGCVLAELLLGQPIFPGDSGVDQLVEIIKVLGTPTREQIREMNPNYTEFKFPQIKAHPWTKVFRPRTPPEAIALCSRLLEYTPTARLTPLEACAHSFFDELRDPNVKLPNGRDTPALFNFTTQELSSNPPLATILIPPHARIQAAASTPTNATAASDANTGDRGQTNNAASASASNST
The experiment in a line: GSK3β biochemical in vitro assay (fluorescence, NADH-coupled). Conditions: 5 nM GSK3β, 40 μM substrate GSM, 50 μM ATP, 30° C., 2 hours. How it is done:
The inhibitory activity of active substances is determined in a biochemical assay. The ingredients required for this purpose are mixed in a black 384-well microtitre plate with transparent base (from Greiner, catalogue number 781092). The requirements in this connection for each well of the 384-well microtitre plate are 5 nM GSK3β (from Upstate, catalogue number xy), 40 μM GSK3B substrate GSM (sequence H-RRRPASVPPSPSLSRHS-(pS)-HQRR, from Upstate, catalogue number 2-533), 30 μM nicotinamide adenine dinucleotide NADH (Roche Diagnostics, catalogue number 10107735), 50 μM adenosine triphosphate ATP (from Sigma, catalogue number A7966), and 2 mM phosphoenolpyruvate (from Roche, catalogue number 128112). The required reaction buffer in which the biochemical reaction takes place consists of 50 mM Trizma hydrochloride tris-HCl pH: 7.5 (from Sigma, catalogue number T3253), 5 mM magnesium chloride MgCl2 (from Sigma, catalogue number M8266), 0.2 mM DL-dithiothreitol DTT (from Sigma, catalogue number D9779), 2 mM ethylenediaminethertetraacid EDTA (from Sigma, catalogue number E6758), 0.01% Triton X-100 (from Sigma, catalogue number T8787) and 0.05% bovine serum albumin BSA (from Sigma, catalogue number B4287).
Active substances are dissolved in dimethyl sulphoxide DMSO (from Sigma, catalogue number D8418) in a concentration of 10 mM. Active substances are added in serial concentrations of 10 μM, 1 μM, 0.1 μM, 0.01 μM, 0.001 μM, 0.0001 μM, 0.00001 μM, 0.000001 μM to the mixtures of the biochemical reaction. As control, dimethyl sulphoxide is added instead of substance in a final concentration of 0.1%.
The reaction is incubated at 30° C. for 2 hours and then the resulting fluorescence is measured in a Tecan Safire-XFLUOR4 instrument, version V4.50 (serial number 12901300283) with the specifications: measurement mode—fluorescence measured from below, extinction wavelength 340 nm, emission wavelength 465 nm, slit width extinction 5 nm, slit width emission 5 nm, gain mode 120, delay 0 μs, number of light flashes per measurement 3, and an integration time of 40 μs.
The activity of the active substances is calculated in relation to these 0% and 100%.
As for `CC(=O)c1ccc(NCCNc2nc(-c3ccc(Cl)cc3Cl)cc3nccn23)nc1N` [Example 150, 1-{2-Amino-6-[(2-{[7-(2,4-dichlorophenyl)imidazo[1,2-c]pyrimidin-5-yl]amino}ethyl)amino]-pyridin-3-yl}ethanone hydrochloride], it took 11 nM to reach half-maximal inhibition (IC50).

For the molecule `CC(=O)c1sc(NCCNc2nc(-c3ccc(Cl)cc3Cl)cc3nccn23)nc1N` [Example 137], the IC50 came out at 5 nM.

For the molecule `CN(C)CCNC(=O)c1cn2c(NCCNc3ccc(C#N)cn3)nc(-c3ccc(Cl)cc3Cl)cc2n1` [Example 112], the half-inhibitory concentration (IC50) stood at 54 nM.

Consider `N#Cc1ccc(NCCNc2nc(-c3ccc(C(F)(F)F)cc3)cc3nc(CN4CCOCC4)nn23)nc1N` [Example 180], for which the midpoint of inhibition, the IC50, lay at 50 nM.

Molecule `CN(C)Cc1cn2c(NCCNc3ccc([N+](=O)[O-])c(N)n3)nc(-c3ccc(Cl)cc3Cl)cc2n1` [Example 147, N^6-[2-({7-(2,4-Dichlorophenyl)-2-[(dimethylamino)methyl]imidazo[1,2-c]pyrimidin-5-yl}amino)-ethyl]-3-nitropyridine-2,6-diamine trifluoroacetate] came in with an IC50 of 24 nM.

In turn, `CN1CCN(CCNC(=O)c2cn3c(NCCNc4ccc(C#N)cn4)nc(-c4ccc(Cl)cc4Cl)cc3n2)CC1` [Example 113] yielded an IC50 of 41 nM.

As to `COC(=O)c1ccc(NCCNc2nc(-c3ccc(Cl)cc3Cl)cc3ncnn23)nc1N` [Example 167], the midpoint of inhibition, the IC50, lay at 61 nM.

In the case of `N#Cc1sc(NCCNc2nc(-c3ccc(Cl)cc3Cl)cc3nccn23)nc1N` [Example 5, 4-Amino-2-[(2-{[7-(2,4-dichlorophenyl)imidazo[1,2-c]pyrimidin-5-yl]amino}ethyl)amino]-1,3-thiazole-5-carbonitrile], it took 15 nM to reach half-maximal inhibition (IC50).

On to `N#Cc1sc(NC2CCCN(c3nc(-c4ccc(Cl)cc4Cl)cc4ncnn34)C2)nc1N` (centres unmarked) [Example 202], for which inhibition was half-maximal at 5 nM (IC50).

`COC(=O)c1sc(NCCNc2nc(-c3ccc(Cl)cc3Cl)cc3nccn23)nc1N` [Example 134] displayed an IC50 of 22 nM.

`CCCCc1ccc(-c2cc3nccn3c(NCCNc3ccc([N+](=O)[O-])c(N)n3)n2)cc1` [Example 65] displayed an IC50 of 188 nM.

Molecule `N#Cc1ccc(NCCNc2nc(-c3ccc(Cl)cc3Cl)cc3nccn23)nc1N` [Example 148, 2-Amino-6-[(2-{[7-(2,4-dichlorophenyl)imidazo[1,2-c]pyrimidin-5-yl]amino}ethyl)amino]-pyridine-3-carbonitrile] displayed a concentration for half-maximal inhibition (IC50) of 12 nM.

Molecule `Nc1nc(NCCNc2nc(-c3ccccc3)cc3nccn23)ccc1[N+](=O)[O-]` [Example 57] yielded an IC50 of 93 nM.

Turning to `Cc1cccc(-c2cc3nccn3c(NCCNc3ccc([N+](=O)[O-])c(N)n3)n2)c1C` [Example 38], inhibition was half-maximal at 23 nM (IC50).

Take `Cc1cn2c(NCCNc3ccc([N+](=O)[O-])c(N)n3)nc(-c3ccc(Cl)cc3Cl)cc2n1` [Example 77, N^6-(2-{[7-(2,4-Dichlorophenyl)-2-methylimidazo[1,2-c]pyrimidin-5-yl]amino}ethyl)-3-nitropyridine-2,6-diamine]: the IC50 came to 17 nM.

Regarding `N#Cc1ccc(NCCNc2nc(-c3ccc(Cl)cc3Cl)cc3ncc(Cl)n23)nc1` [Example 154, 6-[(2-{[3-Chloro-7-(2,4-dichlorophenyl)imidazo[1,2-c]pyrimidin-5-yl]amino}ethyl)amino]-pyridine-3-carbonitrile], inhibition was half-maximal at 19 nM (IC50).

With `Cc1cccc(-c2cc3nccn3c(NCCNc3ccc([N+](=O)[O-])c(N)n3)n2)c1` [Example 40], the IC50 turned out to be 24 nM.

In the case of `Nc1nc(NCCNc2nc(-c3ccc(Cl)cc3Cl)cc3nccn23)ccc1C(=O)C(F)(F)F` [Example 149, 1-{2-Amino-6-[(2-{[7-(2,4-dichlorophenyl)imidazo[1,2-c]pyrimidin-5-yl]amino}ethyl)amino]-pyridin-3-yl}-2,2,2-trifluoroethanone hydrochloride], the IC50 turned out to be 10 nM.

The molecule `Nc1nc(NCCNc2nc(-c3ccc(F)c(Cl)c3)cc3nccn23)ccc1[N+](=O)[O-]` [Example 53] gave an IC50 of 81 nM.

The molecule `Nc1nc(NCCNc2nc(-c3ccc(Cl)cc3Cl)cc3nccn23)sc1C(=O)C1CC1` [Example 131] displayed an IC50 of 6 nM.

As for `Nc1nc(NCCNc2nc(-c3ccc(OC(F)(F)F)cc3)cc3nccn23)ccc1[N+](=O)[O-]` [Example 32], the midpoint of inhibition, the IC50, lay at 148 nM.

On to `Cc1cc(F)ccc1-c1cc2nccn2c(NCCNc2ccc([N+](=O)[O-])c(N)n2)n1` [Example 39], for which 23 nM corresponded to half-maximal inhibition (IC50).

For `N#Cc1ccc(NCCNc2nc(-c3ccc(Cl)cc3Cl)cc3nccn23)nc1` [Example 1, 6-[(2-{[7-(2,4-Dichlorophenyl)imidazo[1,2-c]pyrimidin-5-yl]amino}ethyl)amino]nicotinonitrile], the IC50 worked out at 34 nM.

As to `Nc1nc(NCCNc2nc(-c3ccc(Cl)cc3Cl)cc3nccn23)ccc1[N+](=O)[O-]` [Example 4, N^6-(2-{[7-(2,4-Dichlorophenyl)imidazo[1,2-c]pyrimidin-5-yl]amino}ethyl)-3-nitropyridine-2,6-diamine], the IC50 is 5 nM.

In turn, `CCOc1ccc(-c2cc3nccn3c(NCCNc3ccc([N+](=O)[O-])c(N)n3)n2)cc1` [Example 56] gave an IC50 of 91 nM.

Regarding `N#Cc1ccc(NCCNc2nc(-c3ccc(Cl)cc3Cl)cc3nc(C(=O)NCC(=O)O)cn23)nc1` [Example 115], the IC50 worked out at 5 nM.

In the case of `N#Cc1sc(NCCNc2nc(-c3ccc(Cl)cc3Cl)cc3nc(CN4CCOCC4)nn23)nc1N` [Example 185], the midpoint of inhibition, the IC50, lay at 39 nM.

As for `CC(C)(C)c1ccc(-c2cc3nccn3c(NCCNc3ccc(C#N)cn3)n2)cc1` [Example 8], inhibition was half-maximal at 178 nM (IC50).

Molecule `N#Cc1sc(NCCNc2nc(-c3ccc(C(F)(F)F)cc3)cc3ncnn23)nc1N` [Example 186] displayed an IC50 of 27 nM.
